# Laboratory results published in patent US6869964B2, “Heterocyclicsulfonamide hepatitis C virus inhibitors” (Bristol-Myers Squibb Company, priority 2002, dated 2005).
# Like-named read-outs stand apart in the source and are kept apart here.
# Tests used:
# [1] = target: T1, HCV NS3/4A protease complex (H77C strain) (Hepatitis C virus genotype 1a, UniProt P27958, C1454S); experiment: Recombinant HCV NS3/4A protease complex FRET peptide assay, H77C strain; format: biochemical, HCV genotype 1a
# T1 construct: HCV NS3/4A protease complex (amino acids 1027 to 1711); inferred from pET21b vector and Ni-NTA purification; made in house; host or cells: Escherichia coli BL21 (DE3), pET21b
# Source text: (§1) Recombinant HCV NS3/4A Protease Complex FRET Peptide Assay
# (§2) The purpose of this in vitro assay was to measure the inhibition of HCV NS3 protease complexes, derived from the BMS, H77C or J4l6S strains, as described below, by compounds of the present invention. This assay provides an indication of how effective compounds of the present invention would be in inhibiting HCV proteolytic activity.
# Serum from an HCV-infected patient was obtained from Dr. T. Wright, San Francisco Hospital. An engineered full-length cDNA template of the HCV genome (BMS strain) was constructed from DNA fragments obtained by reverse transcription-PCR (RT-PCR) of serum RNA and using primers selected on the basis of homology between other genotype la strains. From the determination of the entire genome sequence, a genotype la was assigned to the HCV isolate according to the classification of Simmonds et al. (See P Simmonds, K A Rose, S Graham, S W Chan, F McOmish, B C Dow, E A Follett, P L Yap and H Marsden, J. Clin. Microbiol., 31(6), 1493-1503 (1993)). […]
# [2] = target: T2, HCV NS3/4A protease complex (BMS strain) (Hepatitis C virus genotype 1a, UniProt P27958, C1454S); experiment: Recombinant HCV NS3/4A protease complex FRET peptide assay, BMS strain; format: biochemical, HCV genotype 1a
# T2 construct: HCV NS3/4A protease complex (amino acids 1027 to 1711); inferred from pET21b vector and Ni-NTA purification; made in house; host or cells: Escherichia coli BL21 (DE3), pET21b
# Source text: as §1, §2
# Serum from an HCV-infected patient was obtained from Dr. T. Wright, San Francisco Hospital. An engineered full-length cDNA template of the HCV genome (BMS strain) was constructed from DNA fragments obtained by reverse transcription-PCR (RT-PCR) of serum RNA and using primers selected on the basis of homology between other genotype la strains. From the determination of the entire genome sequence, a genotype la was assigned to the HCV isolate according to the classification of Simmonds et al. (See P Simmonds, K A Rose, S Graham, S W Chan, F McOmish, B C Dow, E A Follett, P L Yap and H Marsden, J. Clin. Microbiol., 31(6), 1493-1503 (1993)). […] The infectious clones, H77C (1a genotype) and J4 L6S (1b genotype) were obtained from R. Purcell (NIH) and the sequences are published in Genbank (AAB67036, see Yanagi, M., Purcell, R. H., Emerson, S. U. and Bukh, J. Proc. Natl. Acad. Sci. U.S.A. 94(16),8738-8743 (1997); AF054247, see Yanagi, M., St Claire, M., Shapiro, M., Emerson, S. U., Purcell, R. H. and Bukh, J, Virology 244 (1), 161-172. (1998)).
# The BMS, H77C and J4 L6S strains were used for production of recombinant NS3/4A protease complexes. DNA encoding the recombinant HCV NS3/4A protease complex (amino acids 1027 to 1711) for these strains were manipulated as described by P. Gallinari et al. (see Gallinari P, Paolini C, Brennan D, Nardi C, Steinkuhler C, De Francesco R. Biochemistry. 38(17):5620-32, (1999)). Briefly, a three-lysine solubilizing tail was added at the 3′-end of the NS4A coding region. The cysteine in the P1 position of the NS4A-NS4B cleavage site (amino acid 1711) was changed to a glycine to avoid the proteolytic cleavage of the lysine tag. Furthermore, a cysteine to serine mutation was introduced by PCR at amino acid position 1454 to prevent the autolytic cleavage in the NS3 helicase domain. The variant DNA fragment was cloned in the pET21b bacterial expression vector (Novagen) and the NS3/4A complex was expressed in Escherichia coli strain BL21 (DE3) (Invitrogen) following the protocol described by P. Gallinari et al. (see Gallinari P, Brennan D, Nardi C, Brunetti M, Tomei L, Steinkuhler C, De Francesco R., J Virol. 72(8):6758-69 (1998)) with modifications. Briefly, NS3/4A expression was induced with 0.5 mM Isopropyl β-D-1-thiogalactopyranoside (IPTG) for 22 hr at 20° C. A typical fermentation (10 L) yielded approximately 80 g of wet cell paste. The cells were resuspended in lysis buffer (10 mL/g) consisting of 25 mM N-(2-Hydroxyethyl)Piperazine-N′-(2-Ethane Sulfonic acid) (HEPES), pH7.5, 20% glycerol, 500 mM Sodium Chloride (NaCl), 0.5% Triton-X100, 1 ug/ml lysozyme, 5 mM Magnesium Chloride (MgCl2), 1 ug/ml DnaseI, 5 mM β-Mercaptoethanol (βME), Protease inhibitor—Ethylenediamine Tetraacetic acid (EDTA) free (Roche), homogenized and incubated for 20 mins at 4° C. The homogenate was sonicated and clarified by ultra-centrifugation at 235000 g for lhr at 4° C. Imidazole was added to the supernatant to a final concentration of 15 mM and the pH adjusted to 8.0. The crude protein extract was loaded on a Nickel—Nitrilotriacetic acid (Ni—NTA) column pre-equilibrated with buffer B (25 mM HEPES, pH8.0, 20% glycerol, 500 mM NaCl, 0.5% Triton-X100, 15 mM imidazole, 5 mM βME). The sample was loaded at a flow rate of 1 mL/min. The column was washed with 15 column volumes of buffer C (same as buffer B except with 0.2% Triton-X100). The protein was eluted with 5 column volumes of buffer D (same as buffer C except with 200 mM Imidazole). […]
# [3] = target: T3, human sputum elastase (HS) (Homo sapiens, UniProt P08246); experiment: Specificity assay, human sputum elastase; format: biochemical; conditions: 2 hr enzyme-inhibitor pre-incubation
# T3 construct: human sputum elastase (HS); from tissue; host or cells: human sputum (from the enzyme's name only)
# T3 sequence (P08246 30-267): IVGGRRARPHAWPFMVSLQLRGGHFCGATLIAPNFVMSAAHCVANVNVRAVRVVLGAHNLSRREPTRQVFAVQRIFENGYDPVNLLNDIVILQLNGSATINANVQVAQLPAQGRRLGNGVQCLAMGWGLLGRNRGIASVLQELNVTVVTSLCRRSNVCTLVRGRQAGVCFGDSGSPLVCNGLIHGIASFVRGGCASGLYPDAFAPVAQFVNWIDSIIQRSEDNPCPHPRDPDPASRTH
# Procedure: The specificities of compounds of the present invention were determined against a variety of serine proteases: human sputum elastase (HS), porcine pancreatic elastase (PPE) and human pancreatic chymotrypsin and one cysteine protease: human liver cathepsin B. In all cases a 96-well plate format protocol using colorimetric p-nitroaniline (pNA) substrate specific for each enzyme was used as described previously (CT 2633 application) with some modifications to the serine protease assays.
# Each assay included a 2 hr enzyme-inhibitor pre-incubation at RT followed by addition of substrate and hydrolysis to ˜30% conversion as measured on a Spectramax Pro microplate reader. Compound concentrations varied from 100 to 0.4 μM depending on their potency.
# The final conditions and protocol for the serine protease assays were: • 50 mM Tris(hydroxymethyl)aminomethane hydrochloride (Tris-HCl) pH8, • 0.5M Sodium Sulfate (Na2SO4), 50 mM NaCl, 0.1 mM EDTA, 3% DMSO, • 0.01% Tween-20 with: 133 μM succ-AAA-pNA and 20 nM HS or 8 nM PPE; 100 μM succ-AAPF-pNA and 250 pM Chymotrypsin.
# The percentage of inhibition was calculated using the formula: [1−((UVinh−UVblank)/(UVctl−UVblank))]×100
# A non-linear curve fit was applied to the inhibition-concentration data, and the 50% effective concentration (IC50) was calculated by the use of Excel Xl-fit software.
# T2 sequence (P27958 1027-1657 C1454S): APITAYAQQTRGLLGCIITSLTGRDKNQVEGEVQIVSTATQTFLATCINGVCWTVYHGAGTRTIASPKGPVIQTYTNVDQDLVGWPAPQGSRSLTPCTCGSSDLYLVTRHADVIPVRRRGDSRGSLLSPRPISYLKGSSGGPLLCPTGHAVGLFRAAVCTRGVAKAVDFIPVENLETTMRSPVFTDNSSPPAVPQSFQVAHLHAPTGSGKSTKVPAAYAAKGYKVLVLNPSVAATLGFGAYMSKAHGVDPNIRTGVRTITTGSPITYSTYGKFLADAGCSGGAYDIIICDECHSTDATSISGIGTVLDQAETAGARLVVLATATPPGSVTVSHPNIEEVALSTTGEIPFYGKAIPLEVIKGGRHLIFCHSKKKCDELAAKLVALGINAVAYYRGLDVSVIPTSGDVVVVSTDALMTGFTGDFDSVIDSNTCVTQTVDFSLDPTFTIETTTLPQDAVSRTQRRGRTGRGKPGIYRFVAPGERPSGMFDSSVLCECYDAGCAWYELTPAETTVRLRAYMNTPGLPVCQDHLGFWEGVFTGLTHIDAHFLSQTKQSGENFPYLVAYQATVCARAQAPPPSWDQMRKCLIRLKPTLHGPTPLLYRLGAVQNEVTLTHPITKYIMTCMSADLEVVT
# T2 sequence (P27958 1658-1711 partner, looked up, stated change not applied): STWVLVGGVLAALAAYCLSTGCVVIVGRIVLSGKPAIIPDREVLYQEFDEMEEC
# T1 sequence (P27958 1027-1657 C1454S): as the sequence (P27958 1027-1657 C1454S) above
# T1 sequence (P27958 1658-1711 partner, looked up, stated change not applied): as the sequence (P27958 1658-1711 partner, looked up, stated change not applied) above
structure (smiles),measurement,setting,value
"C=CC1C[C@]1(NC(=O)[C@@H]1C[C@@H](Oc2cc(-c3ccccc3)nc3cc(OC)ccc23)CN1C(=O)[C@@H](NC(=O)OC(C)(C)C)C(C)(C)C)C(=O)NS(=O)(=O)c1cccs1 (stereo in doubt) [Compound 1, (1-{4-(7-Methoxy-2-phenylquinolin-4-yloxy)-2-[1-(thiophene-2-sulfonylaminocarbonyl)-2-vinyl-cyclopropylcarbamoyl]-pyrrolidine-1-carbonyl}-2,2-dimethylpropyl)carbamic acid tert-butyl ester]",IC50,[1],2.2 nM
same,IC50,"[2]; BMS strain, read-out: IC50 against the NS3/4A BMS strain in the enzyme assay",8 nM
same,IC50,"[2]; NS3/4A BMS Strain, activity range, read-out: IC50 a, b, c (Activity Table)",< 100 nM
same,IC50,[3],35000 nM
